Assay results published in patent US20210361638A1, “FXR AGONISTS FOR THE TREATMENT OF LIVER DISEASES” (NOVARTIS AG, priority 2017, published 2021).
Entries after “also recorded” stand apart in the source; their conditions may differ.

How the values were obtained:
[1] = system: NASH subjects; settings: FLINT trial; placebo-treated patients 6%; cited from earlier work
[2] = system: dogs; test: Oral gavage toxicity studies in dogs for up to 39 weeks
[3] = Exposure and exploratory exposure-response analysis in NASH patients; format: in vivo, human
[4] = system: FGF19; test: Pharmacodynamic marker FGF19 with increasing doses; format: in vivo; settings: increasing doses up to 3000 μg
[5] = system: ANIT-induced cholestatic rats; test: ANIT-induced cholestasis rat model; format: in vivo, Sprague-Dawley (SD) rats
Description: Experimental protocols were approved by the local Animal Care and Use Committee and were in compliance with Animal Welfare Act regulations and US regulation (Guide for the Care and Use of Laboratory Animals). […] . The tropifexor-treated rats were sacrificed at 1 and 7 h (n=3/time point) and OCA-treated rats were sacrificed at 1, 3, and 7 h (n=3/time point) after the final dose on day 14 for analysis of target gene expression and serum biomarkers. […] .

[6] = system: NASH mice; test: Diet-induced (AMLN diet) insulin-resistant NASH mouse model; format: in vivo, C57B16 mice
Description: A separate model for diet-induced NASH was developed as described by Trevaskis et al. Male C57B16 mice aged […] were maintained on a high fat (40% kcal; Primex), high fructose (22% by weight), and high cholesterol (2% by weight) diet (Research Diets Inc., New Brunswick, N.J. cat. no. D09100301) for 26 weeks to induce NASH. Control animals received low-fat diet (10% kcal) with no fructose or cholesterol (Research Diets, cat. no. D09100304). […] . Expression of collagen, type I, alpha 1 (Col1a1) and tissue inhibitor of metalloproteinase 1 (Timp1) genes was analyzed by real time quantitative PCR.

[7] = system: STAM mice; test: STAM mouse model of NASH; settings: for NAFLD activity score (NAS): doses 0.1 and 0.3 mg/kg, qd orally weeks 9-12; for Sirius Red-positive areas (pericellular fibrosis): tropifexor 0.03, 0.1, 0.3 mg/kg; for liver triglycerides: tropifexor qd orally weeks 9-12
Description: Further experiments in the STAM model were performed: 2-day old male C57Bl/6J mice were injected with streptozotocin and placed on a high-fat diet (HFD) from weeks 4-12 (HFD-32; CLEA-Japan, Tokyo, Japan). […] Hematoxylin & eosin (H&E)-stained sections were evaluated for nonalcoholic fatty liver disease (NAFLD) activity score (NAS) according to previously defined criteria.
Liver sections were fixed in 4% paraformaldehyde for 48 h and shipped for histopathological analysis.

[8] = system: FGR5; test: FGR5 effects (specificity)

CC[C@H]1[C@@H](O)[C@@H]2[C@H](CC[C@]3(C)[C@@H]([C@H](C)CCC(=O)O)CC[C@@H]23)[C@@]2(C)CC[C@@H](O)C[C@@H]12 [OCA, 6α-ethyl-chenodeoxycholic acid]
patients with pruritus [1]: 23%

O=C(O)c1cc(F)c2nc(N3C4CC[C@H]3C[C@H](OCc3c(-c5ccccc5OC(F)(F)F)noc3C3CC3)C4)sc2c1 [tropifexor, 2-[(1R,3r,5S)-3-({5-cyclopropyl-3-[2-(trifluoromethoxy)phenyl]-1,2-oxazol-4-yl}methoxy)-8-azabicyclo[3.2.1]octan-8-yl]-4-fluoro-1,3-benzothiazole-6-carboxylic acid]
Mean AUC0-24 h at which hepatocellular hypertrophy was adverse ([2]; females): 0.507 µg·h/mL
Mean AUC0-24 h at which hepatocellular hypertrophy was adverse ([2]; males): 0.898 µg·h/mL
predicted exposure in NASH patients ([3]; 200 μg daily): approximately 80 ng·hr/ml
exposure level in NASH patients ([3]; at 200 μg): 0.08 µg·h/mL
pharmacodynamic marker FGF19 [4]: continues to rise
quantitation of collagen deposition (fibrosis) ([5]; FIG. 1D, vs vehicle-treated ANIT livers): significantly decreased
serum biochemistry parameters, liver damage, and fibrosis ([5]; FIG. 1 legend): improves
collagen deposition and liver fibrosis ([5]; chronic ANIT treatment, FIG. 1C): highly reduced
AST, ALT, total BAs, total bilirubin, and GGT levels ([5]; doses as low as 0.3 mg/kg, oral qd 5 days, vs vehicle-treated ANIT rats): marked reduction
reduction of cholestatic disease markers, comparison with OCA ([5]; rat, in vivo): more effective than OCA
liver histology: necrosis of the bile duct epithelium, bile duct hyperplasia, inflammatory cell infiltrates ([5]; vs vehicle-treated cholestatic rats, 0.03, 0.3, 1 mg/kg): dose-dependent improvement
hepatic crown-like structures ([6]; mid- and high dose tropifexor): completely eliminated
ALT and AST levels ([6]; mid-dose level): normalized
collagen deposition in liver (fibrosis), Trichrome staining ([6]; mouse, in vivo): strongly abrogates; also recorded: reverses
steatosis by quantification of liver triglycerides ([6]; mouse, in vivo): Dose-dependent reduction
mRNA levels of fibrogenic markers Col1a1 and TIMP1 ([6]; real time quantitative PCR): dramatically reduced
ALT and AST ([6]; relative to vehicle-treated controls, 4 weeks qd orally): dose-dependent reduction
liver inflammation, steatosis, and fibrosis ([6]; therapeutic mode): resolved
Plasma cholesterol levels ([7]; FIG. 2 legend): significantly reduced
NAFLD activity score (NAS) [7]: significantly reduced
NAFLD activity score (NAS) ([7]; listed as LJN452): significant decrease
fibrosis area in comparison with baseline group ([7]; mouse, in vivo): decreased
resolution of the NASH phenotype, comparison with OCA ([7]; mouse, in vivo): more effectively than OCA
Sirius Red-positive areas (pericellular fibrosis) [7]: significantly reduced
Sirius Red-positive areas (pericellular fibrosis) ([7]; listed as Tropifexor): statistically significant dose-dependent reduction
liver triglycerides [7]: significantly reduced
liver triglycerides ([7]; listed as LJN452): reduction
FGR5 effects [8]: no FGR5 effects
